Measured values from ChEMBL document CHEMBL1134003, “7-Pyrrolidinyl- and 7-piperidinyl-5-aryl-pyrrolo[2,3-d]pyrimidines--potent inhibitors of the tyrosine kinase c-Src” (Bioorg Med Chem Lett, 2001).

How the values were obtained:
[1] = target: Proto-oncogene tyrosine-protein kinase Src (Homo sapiens, UniProt P12931); experiment: Inhibition of p60 c-Src tyrosine kinase enzyme activity in liquid-phase tyrosine phosphorylation assay at 830 ng/mL
[2] = target: Proto-oncogene tyrosine-protein kinase Src (Gallus gallus, UniProt P00523); experiment: Concentration required for inhibition of c-Src mediated phosphorylation of Fak in IC8.1 fibroblast cell assay; format: functional, cell-based
[3] = target: T1, Tyrosine-protein kinase ABL (Homo sapiens, UniProt P00519+P42684)
Description: Concentration required for inhibition of v-Abl receptor by tyrosine kinase enzyme assay

[4] = target: T2, Epidermal growth factor receptor (Homo sapiens, UniProt P00533); experiment: Inhibition of autophosphorylation of epidermal growth factor receptor (EGF-R) in a cellular assay
[5] = target: T2, Epidermal growth factor receptor; experiment: Inhibition of epidermal growth factor receptor (EGF-R)
[6] = target: T1, Tyrosine-protein kinase ABL; experiment: Inhibition of v-Abl receptor tyrosine kinase enzyme activity; format: protein assay
[7] = target: T2, Epidermal growth factor receptor; experiment: Concentration required for inhibition of epidermal growth factor receptor (EGF-R) by tyrosine kinase enzyme activity

T2 sequence (P00533 whole entry): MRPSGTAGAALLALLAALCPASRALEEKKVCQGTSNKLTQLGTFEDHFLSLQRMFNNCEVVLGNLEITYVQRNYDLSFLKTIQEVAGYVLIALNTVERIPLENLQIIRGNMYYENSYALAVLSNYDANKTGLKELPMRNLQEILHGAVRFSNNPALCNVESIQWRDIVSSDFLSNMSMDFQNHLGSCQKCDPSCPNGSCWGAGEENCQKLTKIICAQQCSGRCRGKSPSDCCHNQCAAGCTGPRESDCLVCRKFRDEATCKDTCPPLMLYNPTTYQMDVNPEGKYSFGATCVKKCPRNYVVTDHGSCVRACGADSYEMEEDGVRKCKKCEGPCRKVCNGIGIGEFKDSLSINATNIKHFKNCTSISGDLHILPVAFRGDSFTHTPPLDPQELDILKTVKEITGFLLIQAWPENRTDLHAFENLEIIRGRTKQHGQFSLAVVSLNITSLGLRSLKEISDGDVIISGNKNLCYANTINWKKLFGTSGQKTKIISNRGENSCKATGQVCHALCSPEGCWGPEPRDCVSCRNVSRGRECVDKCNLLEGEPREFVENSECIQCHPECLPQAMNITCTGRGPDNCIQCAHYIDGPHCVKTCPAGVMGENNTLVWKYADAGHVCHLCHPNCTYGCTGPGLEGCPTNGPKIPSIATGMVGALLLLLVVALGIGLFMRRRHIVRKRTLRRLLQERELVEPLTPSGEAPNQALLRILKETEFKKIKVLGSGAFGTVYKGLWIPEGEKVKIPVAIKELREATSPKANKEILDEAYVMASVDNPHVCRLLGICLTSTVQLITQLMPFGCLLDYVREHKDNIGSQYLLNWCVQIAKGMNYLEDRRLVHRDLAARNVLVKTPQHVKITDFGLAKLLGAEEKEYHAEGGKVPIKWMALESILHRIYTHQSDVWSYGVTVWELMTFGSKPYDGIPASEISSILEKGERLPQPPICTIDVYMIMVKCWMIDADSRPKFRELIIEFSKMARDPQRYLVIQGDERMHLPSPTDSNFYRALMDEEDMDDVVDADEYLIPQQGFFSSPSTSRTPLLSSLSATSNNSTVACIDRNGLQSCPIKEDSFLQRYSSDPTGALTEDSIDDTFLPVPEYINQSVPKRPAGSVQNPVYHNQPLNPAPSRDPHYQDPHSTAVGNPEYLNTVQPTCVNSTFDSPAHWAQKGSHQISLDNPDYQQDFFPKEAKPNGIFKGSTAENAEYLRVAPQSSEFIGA
Proto-oncogene tyrosine-protein kinase Src (Homo sapiens, UniProt P12931), sequence (P12931 2-536 limits assumed): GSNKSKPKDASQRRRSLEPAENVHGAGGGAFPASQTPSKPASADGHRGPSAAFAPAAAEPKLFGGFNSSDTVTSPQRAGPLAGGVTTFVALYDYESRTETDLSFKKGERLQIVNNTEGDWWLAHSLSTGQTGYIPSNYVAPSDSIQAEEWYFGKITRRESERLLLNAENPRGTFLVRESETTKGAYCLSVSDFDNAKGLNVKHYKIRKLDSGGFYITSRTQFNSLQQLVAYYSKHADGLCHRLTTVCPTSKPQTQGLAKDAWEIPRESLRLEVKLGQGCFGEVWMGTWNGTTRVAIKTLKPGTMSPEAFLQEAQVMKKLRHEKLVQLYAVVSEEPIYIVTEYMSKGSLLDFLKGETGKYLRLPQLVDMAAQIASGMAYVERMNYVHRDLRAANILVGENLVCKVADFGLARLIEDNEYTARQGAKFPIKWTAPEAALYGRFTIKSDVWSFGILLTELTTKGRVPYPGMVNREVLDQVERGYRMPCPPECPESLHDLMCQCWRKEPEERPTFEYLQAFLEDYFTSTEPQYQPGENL

Row | Compound | IC50 [1] [nM] | IC50 [2] [nM] | IC50 [3] [nM] | IC50 [4] [nM] | IC50 [5] [nM] | IC50 [6] [nM] | IC50 [7] [nM]
1 | Nc1ncnc2c1c(-c1ccccc1)cn2[C@@H]1CN[C@@H](CO)C1 | 300 | – | – | – | – | – | –
2 | CCOC(=O)C[C@H]1C[C@H](n2cc(-c3ccccc3)c3c(N)ncnc32)CN1C(=O)OC(C)(C)C | 410 | – | – | – | – | – | –
3 | COCCN(C)CCN1CCC(n2cc(-c3cccc(OC)c3)c3c(N)ncnc32)CC1 | 47 | 500 | 500 | > 10000 | 930 | – | –
4 | COCCNCCN1CCC(n2cc(-c3cccc(OC)c3)c3c(N)ncnc32)CC1 | 15 | 290 | – | > 10000 | 310 | 310 | –
5 | CC(C)(C)OC(=O)N1CCC(n2cc(-c3cccc(O)c3)c3c(N)ncnc32)C1 (stereo not drawn) | 5 | 3100 | 58 | > 10000 | – | – | 2200
6 | COC(=O)CN1CCC(n2cc(-c3cccc(OC)c3)c3c(N)ncnc32)C1 (stereo not drawn) | 50 | > 5000 | 590 | – | – | – | –
7 | Nc1ncnc2c1c(-c1ccccc1)cn2[C@H]1CN[C@@H](CO)C1 | 130 | – | – | – | – | – | –
8 | CC(C)(C)OC(=O)N1C[C@H](n2cc(-c3ccccc3)c3c(N)ncnc32)C[C@@H]1CO | 2000 | – | – | – | – | – | –
9 | CCOC(=O)C[C@H]1C[C@H](n2cc(-c3ccc(O)cc3)c3c(N)ncnc32)CN1C(=O)OC(C)(C)C | 35 | 700 | – | – | – | – | –
10 | Nc1ncnc2c1c(-c1ccccc1)cn2C1CCNC1 (stereo not drawn) | 230 | – | – | – | – | – | –
11 | COc1cccc(-c2cn(C3CCNC3)c3ncnc(N)c23)c1 (stereo not drawn) | 53 | > 5000 | 1400 | – | – | – | 1120
12 | CCOC(=O)C[C@H]1C[C@@H](n2cc(-c3ccccc3)c3c(N)ncnc32)CN1 | 15 | > 5000 | – | – | – | – | –
13 | Nc1ncnc2c1c(-c1ccc(O)cc1)cn2C1CN[C@@H](CO)C1 (single isomer, unassigned) | 95 | > 5000 | – | – | – | – | –
14 | CC(C)(C)OC(=O)N1C[C@@H](n2cc(-c3ccccc3)c3c(N)ncnc32)C[C@@H]1CO | 130 | – | – | – | – | – | –
15 | NC(=O)CN1CCC(n2cc(-c3cccc(O)c3)c3c(N)ncnc32)C1 (stereo not drawn) | 4 | – | 150 | > 10000 | – | – | 400
16 | COc1cccc(-c2cn(C3CCN(CC(N)=O)CC3)c3ncnc(N)c23)c1 | 22 | 700 | 550 | – | – | – | 350
17 | COc1cccc(-c2cn(C3CCN(CC(=O)N(C)C)CC3)c3ncnc(N)c23)c1 | 67 | > 5000 | – | – | – | – | 750
18 | CC(C)(C)OC(=O)N1CCC(n2cc(-c3ccc(O)cc3)c3c(N)ncnc32)C1 (stereo not drawn) | 8 | 400 | – | – | – | – | –
19 | COc1cccc(-c2cn(C3CCN(CCO)CC3)c3ncnc(N)c23)c1 | 27 | 1400 | 1030 | > 10000 | – | – | 900
20 | CCOC(=O)C[C@H]1C[C@@H](n2cc(-c3ccc(O)cc3)c3c(N)ncnc32)CN1 | 5 | 3300 | – | – | – | – | –
21 | Nc1ncnc2c1c(-c1cccc(O)c1)cn2C1CCNC1 (stereo not drawn) | 6 | 800 | 290 | > 10000 | – | – | 1530

Row | Compound | IC50 [1] [nM] | IC50 [2] [nM] | IC50 [3] [nM] | IC50 [4] [nM] | IC50 [5] [nM] | IC50 [6] [nM] | IC50 [7] [nM]
22 | CCOC(=O)C[C@H]1C[C@H](n2cc(-c3ccc(O)cc3)c3c(N)ncnc32)CN1 | 100 | – | – | – | – | – | –
23 | COC(=O)CN1CCC(n2cc(-c3cccc(O)c3)c3c(N)ncnc32)CC1 | < 1 | 400 | 56 | > 10000 | – | – | 800
24 | CCOC(=O)C[C@H]1C[C@@H](n2cc(-c3ccccc3)c3c(N)ncnc32)CN1C(=O)OC(C)(C)C | 5000 | – | – | – | – | – | –
25 | Nc1ncnc2c1c(-c1cccc(O)c1)cn2C1CCN(CCO)CC1 | 1 | 600 | 98 | > 10000 | – | – | 2540
26 | CC(C)(C)OC(=O)N1CCC(n2cc(-c3ccccc3)c3c(N)ncnc32)C1 (stereo not drawn) | 180 | > 5000 | – | – | – | – | 8300
27 | NC(=O)CN1CCC(n2cc(-c3cccc(O)c3)c3c(N)ncnc32)CC1 | 1 | 800 | 210 | > 10000 | – | – | 170
28 | CC(C)(C)OC(=O)N1C[C@H](n2cc(-c3ccc(O)cc3)c3c(N)ncnc32)C[C@@H]1CO | 350 | – | – | – | – | – | –
29 | COc1cccc(-c2cn(C3CCN(CCN(C)CCO)CC3)c3ncnc(N)c23)c1 | 6 | 600 | 360 | 7800 | – | – | 295
30 | COc1ccc(-c2cn(C3CCNC3)c3ncnc(N)c23)cc1 (stereo not drawn) | 300 | – | – | – | – | – | –
31 | Nc1ncnc2c1c(-c1ccc(O)cc1)cn2C1CCNC1 (stereo not drawn) | 37 | 2700 | 2800 | – | – | – | 2670
32 | Nc1ncnc2c1c(-c1ccc(O)cc1)cn2[C@H]1CNC(CO)C1 (single isomer, unassigned) | 50 | > 5000 | – | – | – | – | –
33 | CC(C)(C)OC(=O)N1C[C@@H](n2cc(-c3ccc(O)cc3)c3c(N)ncnc32)C[C@@H]1CO | 24 | 3300 | – | – | – | – | –
34 | COC(=O)CN1CCC(n2cc(-c3cccc(OC)c3)c3c(N)ncnc32)CC1 | 84 | 2800 | 1000 | – | – | – | –
35 | CCOC(=O)C[C@H]1C[C@@H](n2cc(-c3ccc(O)cc3)c3c(N)ncnc32)CN1C(=O)OC(C)(C)C | 300 | – | – | – | – | – | –
36 | CN(C)C(=O)CN1CCC(n2cc(-c3cccc(O)c3)c3c(N)ncnc32)CC1 | 3 | – | 120 | > 10000 | – | – | 500
37 | COC(=O)CN1CCC(n2cc(-c3cccc(O)c3)c3c(N)ncnc32)C1 (stereo not drawn) | 3 | 700 | 54 | > 10000 | – | – | 740
38 | COc1ccc(-c2cn(C3CCN(C(=O)OC(C)(C)C)C3)c3ncnc(N)c23)cc1 (stereo not drawn) | 400 | 400 | – | – | – | – | –
39 | COc1cccc(-c2cn(C3CCN(CC(N)=O)C3)c3ncnc(N)c23)c1 (stereo not drawn) | 38 | > 5000 | 700 | – | – | – | 440
40 | COc1cccc(-c2cn(C3CCN(C(=O)OC(C)(C)C)C3)c3ncnc(N)c23)c1 (stereo not drawn) | 270 | 4400 | 2400 | – | – | – | 2100
41 | CCOC(=O)C[C@H]1C[C@H](n2cc(-c3ccccc3)c3c(N)ncnc32)CN1 | 600 | – | – | – | – | – | –
